In patent EP0119737A2, “Pharmaceutical composition and its production” (Takeda Chemical Industries, Ltd., priority 1983, dated 1984):
In brackets after ≈: the same amount, converted by molar mass.

How the values were obtained:
[1] = system: Aspergillus niger ATCC 9642; assay: Minimal inhibitory concentration (MIC) of preservative solutions, serial dilution in culture medium, read with the naked eye; assay type: cell-based; conditions: ATCC9642, 120 h, A. niger ATCC 9642, 10^5 cfu/ml, 25°C, 5 days
Procedure: (§1) Thus, two culture media are prepared by adding 0% and 5% of a-cyclodextrin, respectively, to a 1/15 M phosphate buffer (pH 6.5) containing 2% of Polypeptone (Daigo Nutritive Chemicals Ltd., Japan). The preservative is added to each medium and the resulting solution is diluted serially with each of the respective media to give solutions differing in preservative concentration. The test organisms are added to these solutions to a final concentration of 10^5 cfu/ml (cfu: colony forming unit).

[2] = system: Escherichia coli IFO 3044; assay: as above; assay type: cell-based; conditions: IFO3044, 72 h, E. coli IFO 3044, 10^5 cfu/ml, 35°C, 3 days
Procedure: as §1

[3] = pH 6.5, Culture medium + 5% α-cyclodextrin
[4] = pH 6.5, Culture medium without addition of cyclodextrin

COC(=O)c1ccc(O)cc1 [Methylparaben] showed an MIC [1, 3] of 4000 µg/mL, an MIC [1, 4] of 500 µg/mL (≈ 3290 µM) and an MIC [2, 3] of 4000 µg/mL. It also gave an MIC [2, 4] of 500 µg/mL (≈ 3290 µM).
In the case of Oc1ccc(Cl)cc1 [p-Chlorophenol, p-chlorophenol], the MIC [1, 3] is reported as 400 µg/mL, the MIC [1, 4] is reported as 200 µg/mL (≈ 1560 µM) and the MIC [2, 3] is reported as 400 µg/mL. The MIC [2, 4] was 200 µg/mL (≈ 1560 µM).
Work on Cc1cc(O)cc(C)c1Cl [p-Chloro-m-xylenol, p-chloro-m-xylenol] yielded an MIC [1, 3] of 75 µg/mL, an MIC [1, 4] of 50 µg/mL (≈ 319 µM) and an MIC [2, 3] of 150 µg/mL. For the same compound, the MIC [2, 4] was 100 µg/mL (≈ 639 µM).
CCOC(=O)c1ccc(O)cc1 [Ethylparaben] was tested, and the MIC [1, 3] was 4000 µg/mL, the MIC [1, 4] was 250 µg/mL (≈ 1500 µM) and the MIC [2, 3] was 4000 µg/mL. For the same compound, the MIC [2, 4] was 500 µg/mL (≈ 3010 µM).
CCCCOC(=O)c1ccc(O)cc1 [Butylparaben] was tested, and the MIC [1, 3] was 4000 µg/mL, the MIC [1, 4] was 125 µg/mL (≈ 644 µM) and the MIC [2, 3] was 4000 µg/mL. The MIC [2, 4] was 125 µg/mL (≈ 644 µM).
Cc1cc(O)ccc1Cl [p-Chloro-m-cresol, p-chloro-m-cresol] was tested, and the MIC [1, 3] was 200 µg/mL, the MIC [1, 4] was 100 µg/mL (≈ 701 µM) and the MIC [2, 3] was 200 µg/mL. For the same compound, the MIC [2, 4] was 200 µg/mL (≈ 1400 µM).
CCCOC(=O)c1ccc(O)cc1 [Propylparaben] showed an MIC [1, 3] of 4000 µg/mL, an MIC [1, 4] of 125 µg/mL (≈ 694 µM) and an MIC [2, 3] of 4000 µg/mL. The MIC [2, 4] was 250 µg/mL (≈ 1390 µM).
